Measured values: ChEMBL document CHEMBL1201862, “PubChem BioAssay data set” (2004)
The source made the active and inactive calls.

Key:
[1] = target: T1, Estrogen receptor beta (Homo sapiens, UniProt Q92731);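 also: recombinant ER-beta bound to coactivator SRC1 peptide in presence of estradiol agonist; inhibitors block coactivator peptide binding and lower the FRET signal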
[2] = target: T1, Estrogen receptor beta; test: blockers of SRC-3 recruitment to ERβ – biochemical, ELISA, streptavidin-HRP readout, orthogonal assay, confirmation (AID 1060)
[3] = target: Mucolipin-3 (Homo sapiens, UniProt Q8TDD5); test: Dose response cell-based high-throughput screening assay for agonists of the transient receptor potential channel ML3 (TRPML3). [Related pubchem assays: 1526, 1424, 1448 ]; assay type: functional
Mucolipin-3, sequence (Q8TDD5 whole entry): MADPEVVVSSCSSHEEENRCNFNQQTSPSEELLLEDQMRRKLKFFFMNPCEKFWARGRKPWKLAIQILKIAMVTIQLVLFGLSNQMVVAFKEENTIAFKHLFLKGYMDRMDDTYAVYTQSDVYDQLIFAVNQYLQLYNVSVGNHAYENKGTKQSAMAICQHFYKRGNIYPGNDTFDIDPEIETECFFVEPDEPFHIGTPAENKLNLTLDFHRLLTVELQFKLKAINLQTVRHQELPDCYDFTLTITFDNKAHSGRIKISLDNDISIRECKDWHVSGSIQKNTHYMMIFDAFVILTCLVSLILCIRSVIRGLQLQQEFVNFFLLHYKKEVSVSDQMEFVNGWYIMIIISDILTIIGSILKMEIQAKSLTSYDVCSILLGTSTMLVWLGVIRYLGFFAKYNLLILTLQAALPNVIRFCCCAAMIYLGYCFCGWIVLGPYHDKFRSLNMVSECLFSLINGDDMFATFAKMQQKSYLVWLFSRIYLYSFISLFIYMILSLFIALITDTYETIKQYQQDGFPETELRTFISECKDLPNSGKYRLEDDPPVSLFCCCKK

[4] = target: T2, Corticotropin-releasing factor receptor 2/Corticotropin-releasing factor-binding protein (Homo sapiens, UniProt P24387+Q13324); test: activators of CRF receptor 2 with binding protein – uHTS hits, confirmation (AID 602473); assay type: functional; conditions: read-out: EC50_Mean
T2 sequence (Q13324 whole entry): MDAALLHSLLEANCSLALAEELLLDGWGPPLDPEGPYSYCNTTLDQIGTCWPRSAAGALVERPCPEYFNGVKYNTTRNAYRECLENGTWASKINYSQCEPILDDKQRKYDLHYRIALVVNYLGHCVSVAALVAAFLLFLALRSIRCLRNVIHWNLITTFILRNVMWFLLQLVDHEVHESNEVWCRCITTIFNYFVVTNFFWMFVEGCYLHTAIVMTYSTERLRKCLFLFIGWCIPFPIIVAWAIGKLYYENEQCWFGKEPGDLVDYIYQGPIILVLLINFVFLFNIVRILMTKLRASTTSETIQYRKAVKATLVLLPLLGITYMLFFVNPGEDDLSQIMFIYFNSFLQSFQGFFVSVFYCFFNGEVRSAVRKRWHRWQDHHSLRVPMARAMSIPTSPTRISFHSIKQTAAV
T2 sequence (P24387 whole entry): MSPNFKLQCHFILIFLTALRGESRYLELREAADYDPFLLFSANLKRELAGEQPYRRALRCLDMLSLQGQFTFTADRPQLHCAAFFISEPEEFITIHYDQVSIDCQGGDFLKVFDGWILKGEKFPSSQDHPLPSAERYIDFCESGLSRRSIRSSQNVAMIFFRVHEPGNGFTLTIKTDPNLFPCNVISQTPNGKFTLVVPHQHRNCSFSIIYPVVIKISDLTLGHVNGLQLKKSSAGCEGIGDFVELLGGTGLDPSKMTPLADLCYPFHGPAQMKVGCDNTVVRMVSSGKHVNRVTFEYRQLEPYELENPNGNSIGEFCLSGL

[5] = target: Ion channel NompC (Danio rerio, UniProt Q7T1G6); test: Fluorescence counterscreen assay for TRPML3 agonists: dose response cell-based high-throughput screening assay to identify agonists of the transient receptor potential channel N1 (TRPN1). [Related pubchem assays: 1526, 1424, 1448 ]; assay type: functional
Ion channel NompC, sequence (Q7T1G6 whole entry): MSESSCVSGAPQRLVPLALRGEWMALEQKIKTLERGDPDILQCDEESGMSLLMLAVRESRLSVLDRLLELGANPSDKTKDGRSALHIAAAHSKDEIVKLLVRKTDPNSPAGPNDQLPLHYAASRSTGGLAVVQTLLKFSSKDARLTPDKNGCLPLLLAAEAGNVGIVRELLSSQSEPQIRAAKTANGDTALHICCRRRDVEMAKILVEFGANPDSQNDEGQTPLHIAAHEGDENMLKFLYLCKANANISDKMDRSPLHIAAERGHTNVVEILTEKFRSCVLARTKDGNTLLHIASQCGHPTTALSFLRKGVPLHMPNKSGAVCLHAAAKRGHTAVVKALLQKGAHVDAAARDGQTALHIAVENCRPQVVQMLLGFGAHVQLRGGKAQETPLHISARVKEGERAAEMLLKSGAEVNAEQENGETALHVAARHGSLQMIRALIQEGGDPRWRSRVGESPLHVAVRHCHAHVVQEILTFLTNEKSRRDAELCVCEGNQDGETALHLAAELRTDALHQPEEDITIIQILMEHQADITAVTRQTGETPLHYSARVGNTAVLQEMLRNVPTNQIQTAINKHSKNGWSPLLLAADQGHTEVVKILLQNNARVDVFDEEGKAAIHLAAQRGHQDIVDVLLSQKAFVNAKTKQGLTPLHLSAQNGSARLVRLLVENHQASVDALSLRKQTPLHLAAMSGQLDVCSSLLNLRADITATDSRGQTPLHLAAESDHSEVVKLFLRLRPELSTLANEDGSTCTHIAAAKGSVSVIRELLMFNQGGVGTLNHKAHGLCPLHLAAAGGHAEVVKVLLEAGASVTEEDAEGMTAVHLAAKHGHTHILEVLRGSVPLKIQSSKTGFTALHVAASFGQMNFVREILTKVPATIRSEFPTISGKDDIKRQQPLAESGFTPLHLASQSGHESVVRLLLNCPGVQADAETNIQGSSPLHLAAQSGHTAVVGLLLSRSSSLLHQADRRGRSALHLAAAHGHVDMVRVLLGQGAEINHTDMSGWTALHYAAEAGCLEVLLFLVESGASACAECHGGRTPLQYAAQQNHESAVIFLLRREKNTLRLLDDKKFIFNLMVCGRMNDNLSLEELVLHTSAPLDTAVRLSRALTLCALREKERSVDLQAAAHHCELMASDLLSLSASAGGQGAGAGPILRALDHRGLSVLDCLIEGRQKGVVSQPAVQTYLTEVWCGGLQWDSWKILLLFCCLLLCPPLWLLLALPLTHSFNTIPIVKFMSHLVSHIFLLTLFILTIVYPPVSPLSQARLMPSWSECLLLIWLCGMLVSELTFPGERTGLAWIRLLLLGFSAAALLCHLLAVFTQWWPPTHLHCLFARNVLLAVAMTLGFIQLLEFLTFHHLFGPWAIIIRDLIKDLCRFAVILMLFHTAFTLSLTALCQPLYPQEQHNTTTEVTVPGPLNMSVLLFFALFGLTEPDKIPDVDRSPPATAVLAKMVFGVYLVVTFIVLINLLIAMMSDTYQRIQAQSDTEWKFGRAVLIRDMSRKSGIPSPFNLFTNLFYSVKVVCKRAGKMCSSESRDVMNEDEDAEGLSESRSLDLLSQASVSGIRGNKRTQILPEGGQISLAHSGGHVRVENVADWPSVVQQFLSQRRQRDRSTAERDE

[6] = alpha-synuclein stem-loop luciferase translation blockers – H4 neuroglioma cells, luminescence, confirmation (AID 1988); assay type: functional, cell-based
[7] = luciferase reporter signal suppression in cells – H4 neuroglioma cells, luminescence, dose response (AID 1990); assay type: functional, cell-based
[8] = Luminescence Cell-Based Dose Response HTS to Identify Inhibitors of 5'UTR Stem-Loop Driven Prion Protein mRNA Translation in H4 Neuroglioblastoma Cells. [Related pubchem assays: 1827 (Project Summary), 1813 (Primary HTS)]; assay type: functional
[9] = system: HT-1080; test: HT1080 cell viability loss – fluorescence readout (AID 620); assay type: functional, cell-based; conditions: Homo sapiens
[10] = target: Luciferin 4-monooxygenase (Photinus pyralis, UniProt P08659); test: Counter Screen for Luciferase-based Assay Positives. [Related pubchem assays: 620, 618, 411 ]
Luciferin 4-monooxygenase, sequence (P08659 whole entry): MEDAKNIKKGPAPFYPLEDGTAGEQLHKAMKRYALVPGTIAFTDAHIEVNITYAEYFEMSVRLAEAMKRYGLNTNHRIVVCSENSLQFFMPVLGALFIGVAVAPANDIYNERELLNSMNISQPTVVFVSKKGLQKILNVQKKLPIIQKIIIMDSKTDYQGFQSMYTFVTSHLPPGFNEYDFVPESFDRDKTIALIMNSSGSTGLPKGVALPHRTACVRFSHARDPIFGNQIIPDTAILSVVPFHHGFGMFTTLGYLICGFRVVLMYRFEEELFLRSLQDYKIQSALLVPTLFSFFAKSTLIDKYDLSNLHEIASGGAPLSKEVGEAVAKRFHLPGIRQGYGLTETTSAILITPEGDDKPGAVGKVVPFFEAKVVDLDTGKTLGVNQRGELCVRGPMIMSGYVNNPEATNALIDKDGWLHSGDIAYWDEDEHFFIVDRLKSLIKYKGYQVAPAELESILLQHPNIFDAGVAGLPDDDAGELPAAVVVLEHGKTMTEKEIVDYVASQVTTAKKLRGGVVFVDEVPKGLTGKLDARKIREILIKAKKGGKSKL

[11] = HPDE-C7 pancreatic duct cell viability loss – fluorescence, HTS (AID 430); assay type: functional, cell-based; conditions: Homo sapiens
[12] = target: T3, Apoptotic protease-activating factor 1 (Homo sapiens, UniProt O14727); assay type: functional
T3 sequence (O14727 whole entry): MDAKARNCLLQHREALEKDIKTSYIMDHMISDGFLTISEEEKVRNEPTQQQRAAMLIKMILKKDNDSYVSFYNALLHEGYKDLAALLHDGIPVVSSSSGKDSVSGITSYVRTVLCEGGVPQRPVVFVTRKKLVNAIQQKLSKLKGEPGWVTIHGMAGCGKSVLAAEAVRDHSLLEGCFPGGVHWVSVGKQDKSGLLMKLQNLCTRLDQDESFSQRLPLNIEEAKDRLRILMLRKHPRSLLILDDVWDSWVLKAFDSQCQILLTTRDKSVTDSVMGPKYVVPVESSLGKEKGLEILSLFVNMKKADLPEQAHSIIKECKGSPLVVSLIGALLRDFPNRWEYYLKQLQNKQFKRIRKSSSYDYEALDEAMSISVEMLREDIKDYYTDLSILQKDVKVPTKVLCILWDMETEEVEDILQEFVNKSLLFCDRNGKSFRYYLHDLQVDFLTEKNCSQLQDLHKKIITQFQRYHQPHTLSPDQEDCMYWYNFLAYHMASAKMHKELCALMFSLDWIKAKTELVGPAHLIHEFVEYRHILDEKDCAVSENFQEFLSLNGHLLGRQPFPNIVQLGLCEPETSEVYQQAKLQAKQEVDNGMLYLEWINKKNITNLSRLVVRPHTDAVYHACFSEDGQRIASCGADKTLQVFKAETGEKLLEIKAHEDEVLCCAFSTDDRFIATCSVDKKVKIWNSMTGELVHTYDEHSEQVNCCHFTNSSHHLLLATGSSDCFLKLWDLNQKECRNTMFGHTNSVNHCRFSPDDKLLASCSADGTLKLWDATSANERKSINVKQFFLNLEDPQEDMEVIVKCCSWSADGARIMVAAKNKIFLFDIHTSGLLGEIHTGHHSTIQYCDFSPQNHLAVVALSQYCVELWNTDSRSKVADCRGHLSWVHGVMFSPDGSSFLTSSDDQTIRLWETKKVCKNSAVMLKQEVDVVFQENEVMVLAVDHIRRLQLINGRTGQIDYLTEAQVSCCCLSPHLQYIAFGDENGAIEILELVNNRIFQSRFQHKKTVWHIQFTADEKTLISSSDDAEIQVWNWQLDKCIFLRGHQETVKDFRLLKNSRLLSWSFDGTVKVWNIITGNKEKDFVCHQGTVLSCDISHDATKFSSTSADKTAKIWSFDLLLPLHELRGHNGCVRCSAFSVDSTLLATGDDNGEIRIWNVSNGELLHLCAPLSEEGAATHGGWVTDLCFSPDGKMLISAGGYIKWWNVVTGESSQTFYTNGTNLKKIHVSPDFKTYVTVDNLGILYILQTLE

[13] = viability of HCT116 lacking mutant beta-catenin – cell-based, human colon tumor, dose response (AID 1045); assay type: functional;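 also: HCT116 colon tumor cells with beta catenin knocked out; cells exposed to compound for 60 hours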
[14] = viability of PTEN-deleted HCT116 cells – cell-based, HCT116 PTEN knockout, dose response (AID 1047); assay type: functional;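 also: HCT116 colon tumor cells with PTEN knocked out; cells exposed to compound for 60 hours before readout; potency for loss of cell viability measured by luminescence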
[15] = viability loss of HPDE-C7K cells – cell-based, fluorescence, HTS, primary screen (AID 431); assay type: functional; conditions: Homo sapiens
[16] = target: T4, Replicative DNA helicase DnaB (Mycobacterium tuberculosis, UniProt P9WMR3); test: DnaB intein splicing inhibitors, dose response, biochemical, cell-free fluorescence (AID 449749); assay type: functional
T4 sequence (P9WMR3 whole entry): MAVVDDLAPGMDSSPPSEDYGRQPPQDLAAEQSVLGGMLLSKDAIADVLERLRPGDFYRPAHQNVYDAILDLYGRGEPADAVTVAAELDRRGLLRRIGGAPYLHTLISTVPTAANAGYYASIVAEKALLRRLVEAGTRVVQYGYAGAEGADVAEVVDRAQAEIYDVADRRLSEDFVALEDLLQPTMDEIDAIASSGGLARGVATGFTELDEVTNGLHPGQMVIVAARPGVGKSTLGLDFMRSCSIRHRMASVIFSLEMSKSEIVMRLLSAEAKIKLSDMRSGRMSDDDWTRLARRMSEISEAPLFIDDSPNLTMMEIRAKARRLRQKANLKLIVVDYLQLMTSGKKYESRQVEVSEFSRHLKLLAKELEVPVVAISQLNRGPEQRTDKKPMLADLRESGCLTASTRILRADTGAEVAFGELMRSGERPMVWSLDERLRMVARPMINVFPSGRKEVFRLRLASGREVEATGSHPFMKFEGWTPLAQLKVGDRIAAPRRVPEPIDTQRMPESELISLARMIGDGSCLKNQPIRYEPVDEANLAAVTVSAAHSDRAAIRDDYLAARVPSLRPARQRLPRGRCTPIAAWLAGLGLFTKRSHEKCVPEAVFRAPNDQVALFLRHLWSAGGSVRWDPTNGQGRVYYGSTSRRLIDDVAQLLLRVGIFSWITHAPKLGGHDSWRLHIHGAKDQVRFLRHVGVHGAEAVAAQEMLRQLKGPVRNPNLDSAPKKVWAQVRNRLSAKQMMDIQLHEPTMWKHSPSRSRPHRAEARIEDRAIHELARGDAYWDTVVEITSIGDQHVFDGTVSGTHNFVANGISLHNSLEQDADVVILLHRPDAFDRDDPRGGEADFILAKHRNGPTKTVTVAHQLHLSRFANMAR

[17] = target: T5, Protein RecA (Mycobacterium tuberculosis, UniProt P9WHJ3); test: Fluorescence Cell-Free Homogeneous Dose Retest to Identify Inhibitors of RecA-Intein Splicing Activity. [Related pubchem assays (depositor defined):AID2097, AID2223, AID489010, AID492950]; assay type: functional
T5 sequence (P9WHJ3 whole entry): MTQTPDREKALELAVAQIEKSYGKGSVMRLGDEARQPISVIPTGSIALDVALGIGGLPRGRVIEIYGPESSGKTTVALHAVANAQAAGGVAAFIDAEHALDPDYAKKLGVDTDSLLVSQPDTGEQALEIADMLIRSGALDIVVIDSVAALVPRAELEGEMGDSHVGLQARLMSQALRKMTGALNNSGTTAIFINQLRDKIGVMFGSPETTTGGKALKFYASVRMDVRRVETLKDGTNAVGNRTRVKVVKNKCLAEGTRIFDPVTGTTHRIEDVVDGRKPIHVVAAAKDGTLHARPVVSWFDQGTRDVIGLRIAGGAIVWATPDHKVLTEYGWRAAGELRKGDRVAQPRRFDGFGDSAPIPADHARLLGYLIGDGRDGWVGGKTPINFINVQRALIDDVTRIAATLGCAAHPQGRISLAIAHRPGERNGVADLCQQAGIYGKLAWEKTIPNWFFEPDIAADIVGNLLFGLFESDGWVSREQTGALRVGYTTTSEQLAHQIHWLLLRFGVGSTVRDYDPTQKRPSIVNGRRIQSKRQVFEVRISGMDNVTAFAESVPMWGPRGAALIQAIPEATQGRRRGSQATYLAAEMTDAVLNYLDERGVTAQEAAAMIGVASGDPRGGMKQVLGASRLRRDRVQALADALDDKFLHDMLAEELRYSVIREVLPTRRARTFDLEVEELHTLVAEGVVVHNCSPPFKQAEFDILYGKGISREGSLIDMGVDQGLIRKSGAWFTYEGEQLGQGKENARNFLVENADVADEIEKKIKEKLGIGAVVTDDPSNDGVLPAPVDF

[18] = target: Estrogen receptor (Homo sapiens, UniProt P03372);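 also: potency for inhibiting coactivator peptide recruitment to the receptor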
Estrogen receptor, sequence (P03372 whole entry): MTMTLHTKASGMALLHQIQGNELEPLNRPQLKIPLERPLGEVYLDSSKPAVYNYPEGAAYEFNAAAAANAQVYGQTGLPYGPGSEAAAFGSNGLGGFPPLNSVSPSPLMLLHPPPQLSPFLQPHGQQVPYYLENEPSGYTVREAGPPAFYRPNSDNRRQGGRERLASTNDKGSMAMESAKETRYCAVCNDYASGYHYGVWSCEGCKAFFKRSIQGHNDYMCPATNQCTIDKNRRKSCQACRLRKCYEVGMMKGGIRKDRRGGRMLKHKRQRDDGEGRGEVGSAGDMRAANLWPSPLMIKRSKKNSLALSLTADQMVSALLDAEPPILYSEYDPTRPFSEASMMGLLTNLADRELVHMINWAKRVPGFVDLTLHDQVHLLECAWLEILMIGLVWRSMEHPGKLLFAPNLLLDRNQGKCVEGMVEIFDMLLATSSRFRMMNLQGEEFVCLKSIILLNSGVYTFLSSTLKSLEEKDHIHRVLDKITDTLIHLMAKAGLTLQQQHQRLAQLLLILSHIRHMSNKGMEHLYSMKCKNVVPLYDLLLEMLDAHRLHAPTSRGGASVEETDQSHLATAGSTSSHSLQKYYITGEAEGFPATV

[19] = target: Protein-tyrosine kinase 2-beta (Homo sapiens, UniProt Q14289);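 also: potency of inhibitors of PYK2 kinase phosphorylation of poly-GT substrate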
[20] = target: Beta-lactamase (Salmonella choleraesuis (strain SC-B67), UniProt Q5J463)
Beta-lactamase (Salmonella choleraesuis (strain SC-B67), UniProt Q5J463), sequence (Q5J463 whole entry): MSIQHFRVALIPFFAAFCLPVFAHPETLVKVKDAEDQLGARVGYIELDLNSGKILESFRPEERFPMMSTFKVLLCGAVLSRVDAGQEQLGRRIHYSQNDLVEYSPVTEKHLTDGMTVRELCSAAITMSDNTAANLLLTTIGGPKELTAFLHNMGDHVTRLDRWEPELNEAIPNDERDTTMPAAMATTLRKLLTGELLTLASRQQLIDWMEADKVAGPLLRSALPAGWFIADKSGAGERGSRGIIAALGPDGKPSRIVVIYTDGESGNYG

[21] = target: Voltage-dependent T-type calcium channel subunit alpha-1H (Homo sapiens, UniProt O95180); assay type: functional;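 also: channel activity triggered by adding a high calcium stimulation buffer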
[22] = target: Beta-lactamase (Pseudomonas aeruginosa, UniProt Q79MP6);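 also: biochemical dose-response test of metallo-beta-lactamase enzyme inhibition, read out by epi-absorbance; purified recombinant IMP-1 metallo-beta-lactamase with nitrocefin as substrate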
Beta-lactamase (Pseudomonas aeruginosa, UniProt Q79MP6), sequence (Q79MP6 whole entry): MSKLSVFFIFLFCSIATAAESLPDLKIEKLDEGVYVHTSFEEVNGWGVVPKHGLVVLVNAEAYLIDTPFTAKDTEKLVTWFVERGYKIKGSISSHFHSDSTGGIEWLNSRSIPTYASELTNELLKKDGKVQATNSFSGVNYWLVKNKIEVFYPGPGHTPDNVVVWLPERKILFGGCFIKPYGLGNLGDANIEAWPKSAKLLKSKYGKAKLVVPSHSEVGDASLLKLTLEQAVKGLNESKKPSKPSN

T1 sequence (Q92731 whole entry): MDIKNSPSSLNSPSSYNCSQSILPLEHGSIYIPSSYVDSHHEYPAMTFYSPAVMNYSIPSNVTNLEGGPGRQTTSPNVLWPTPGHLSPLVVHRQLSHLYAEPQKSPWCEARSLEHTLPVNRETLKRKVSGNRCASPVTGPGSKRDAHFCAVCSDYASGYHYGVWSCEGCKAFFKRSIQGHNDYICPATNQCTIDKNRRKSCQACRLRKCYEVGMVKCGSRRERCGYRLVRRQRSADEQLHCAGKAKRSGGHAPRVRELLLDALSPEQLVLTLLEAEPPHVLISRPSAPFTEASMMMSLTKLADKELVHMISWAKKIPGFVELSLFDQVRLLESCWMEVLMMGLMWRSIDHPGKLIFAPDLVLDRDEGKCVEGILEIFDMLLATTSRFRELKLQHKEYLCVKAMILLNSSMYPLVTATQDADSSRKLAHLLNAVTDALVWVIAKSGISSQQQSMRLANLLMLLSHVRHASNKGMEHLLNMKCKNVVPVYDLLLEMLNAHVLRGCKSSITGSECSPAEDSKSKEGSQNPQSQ

## CC12CCC(=O)N1C(C(=O)OCC(=O)Nc1sccc1C#N)CS2 (centres undefined)
[1]
  IC50: 14.4 µM (active)
[2]
  IC50: 118 nM (not active)

## O=C(c1ccc([N+](=O)[O-])cc1)N(Cc1ccc(Cl)cc1Cl)N1C(=O)CCCC1=O
[3]
  EC50: > 29.9 µM (not active)
[4]
  EC50: > 53 µM (inactive)
[5]
  EC50: > 29.9 µM (not active)

## O=c1c(Cl)c(N2CCCCC2)cnn1-c1nc2ccccc2[nH]1
[6]
  EC50: 2.68 µM (active)
[7]
  EC50: 2.55 µM (active)
[8]
  EC50: 34.4 µM (active)
[9]
  EC50: > 50 µM (not active)
[10]
  EC50: 4.25 µM (active)

## Nc1c(C(=O)NCc2ccc3c(c2)OCO3)c2nc3ccccc3nc2n1CCCN1CCOCC1
[11]
  EC50: 9.92 µM (active)
[12]
  IC50: 76.8 µM (active)
[13]
  EC50: 20.2 µM (active)
[14]
  EC50: 20.6 µM (active)
[15]
  EC50: 13.2 µM (active)

## CC(C)N(C(=O)c1ccc2nc(-c3ccccc3)c(-c3ccccc3)nc2c1)C(C)C
[3]
  EC50: 1.52 µM (active)
[5]
  EC50: > 29.9 µM (not active)

## COc1ccc(-c2nnc(SC(=O)N3c4ccccc4Sc4ccccc43)o2)cc1
[11]
  EC50: 12.5 µM (active)
[16]
  AC50: 1.79 µM (active)
[15]
  EC50: 8.96 µM (active)
[17]
  EC50: 451 nM (active)

## C/N=C1\SC(CC(=O)Nc2ccc(C(C)=O)cc2)C(=O)N1C (centres undefined)
[1]
  IC50: > 50 µM (not active)
[18]
  IC50: > 50 µM (not active)

## CCN(CC)c1ccc2cc(-c3nc4ccccc4[nH]3)c(=O)oc2c1
[19]
  IC50: 2.32 µM (active)
[9]
  EC50: > 50 µM (not active)
[20]
  IC50: 709 nM (active)
[21]
  EC50: 434 nM (active)
[22]
  IC50: 3.24 µM (active)
[10]
  EC50: < 0.2 µM (active)
